Reference: US20080175801A1, “Stable peroxide containing personal care compositions” (The Procter & Gamble Company, priority 2007, published 2008)
Where two headings read alike, the source gives them in different places.

Assay: Accelerated stability of flavor components in peroxide mouthrinse, measured by gas chromatography
Assay type: physicochemical
Settings: for % Reduction at day 17, Formula IA / % Reduction at day 31, Formula IA: Formula IA with Glass H polyphosphate radical scavenger; for % Reduction at day 17, Formula IA / % Reduction at day 31, Formula IA / % Reduction at day 17, Formula IB / % Reduction at day 31, Formula IB / % Reduction at day 17, Treated / % Reduction at day 31, Treated / % Reduction at day 17, Untreated / % Reduction at day 31, Untreated: component at 0.005%; for % Reduction at day 17, Formula IB / % Reduction at day 31, Formula IB: no radical scavenger, not treated to remove metals; for % Reduction at day 17, Treated / % Reduction at day 31, Treated: formulation IB treated with polymer supported chelant; for % Reduction at day 17, Treated / % Reduction at day 31, Treated / % Reduction at day 17, Untreated / % Reduction at day 31, Untreated: vs day 0; for % Reduction at day 17, Untreated / % Reduction at day 31, Untreated: formulation IB untreated
Description: The stability of the present compositions was assessed by measuring any changes in levels of peroxide, active component (cetylpyridinium chloride) and flavor components under storage conditions at 40° C. and 75% Relative Humidity.
A flavor mix consisting of Ethylbutyrate, Limonene, Decanal, Methylsalicylate, Carvone and Anethole (each flavor component at 0.005%) was added to the compositions. The resulting mouthrinse formulations were packaged in 500 ml PET bottles and placed on accelerated stability test chamber at 40° C. and 75% Relative Humidity conditions. The amount of peroxide in the samples was measured using the method described above and no significant changes were detected. However, radical activity was greater in the untreated sample vs. the treated sample as evidenced in greater degradation of flavor components in the untreated sample. The amount of each flavor component at time 0, 17 and 31 days was evaluated by gas chromatography (GC). Results are summarized in Table 2 below showing % reduction of each component and total flavor at days 17 and 31 from day 0. […] The treatment also […].
Formulation IA with Glass H polyphosphate as radical scavenger was compared with a sample of formulation IB (no radical scavenger) that was not treated to remove metals. […] The resulting mouthrinse formulations were packaged in 500 ml PET bottles and placed on accelerated stability test chamber at 40° C. and 75% Relative Humidity. The amount of each flavor component at time 0, 17 and 31 days were measured by gas chromatography (GC).

SMILES	Stability of flavor component in the presence of peroxide	Effect of polyphosphate radical scavenger on stability of flavor component	% Reduction at day 17, Formula IA (40° C., 75% RH) [%]	% Reduction at day 31, Formula IA (40° C., 75% RH) [%]	% Reduction at day 17, Formula IB (40° C., 75% RH) [%]	% Reduction at day 31, Formula IB (40° C., 75% RH) [%]	% Reduction at day 17, Treated (40° C., 75% RH) [%]	% Reduction at day 31, Treated (40° C., 75% RH) [%]	% Reduction at day 17, Untreated (40° C., 75% RH) [%]	% Reduction at day 31, Untreated (40° C., 75% RH) [%]	Effect of polyphosphate radical scavenger on stability of flavor component (in words, formulation IA vs untreated IB, 40° C., 75% RH)	Stability of flavor component in the presence of peroxide (in words, formulation IB, 40° C., 75% RH)
COC(=O)c1ccccc1O [Methylsalicylate]	relatively stable											
CC=Cc1ccc(OC)cc1 [Anethole]	significant decomposition	increased stability	60	80	100	100	60	80	100	100		
C=C(C)[C@H]1CC=C(C)CC1 [Limonene]			25	25	100	100	75	75	100	100	increased stability	significant decomposition

Now from value to compound, other results behind:

Stability of flavor component in the presence of peroxide	Effect of polyphosphate radical scavenger on stability of flavor component	% Reduction at day 17, Formula IA (40° C., 75% RH) [%]	% Reduction at day 31, Formula IA (40° C., 75% RH) [%]	% Reduction at day 17, Formula IB (40° C., 75% RH) [%]	% Reduction at day 31, Formula IB (40° C., 75% RH) [%]	% Reduction at day 17, Treated (40° C., 75% RH) [%]	% Reduction at day 31, Treated (40° C., 75% RH) [%]	% Reduction at day 17, Untreated (40° C., 75% RH) [%]	% Reduction at day 31, Untreated (40° C., 75% RH) [%]	SMILES	Effect of polyphosphate radical scavenger on stability of flavor component (in words, formulation IA vs untreated IB, 40° C., 75% RH)	Stability of flavor component in the presence of peroxide (in words, formulation IB, 40° C., 75% RH)
	increased stability	0	0	20	20	25	25	20	20	CCCC(=O)OCC [Ethylbutyrate]		
		50	50	20	20	20	20	20	20	C=C(C)C1CC=C(C)C(=O)C1 (stereo not drawn) [Carvone]		
significant decomposition	increased stability	20	40	80	80	25	75	80	80	CCCCCCCCCC=O [Decanal]		
